Values joined by “and” are separate entries in the source; they are usually repeats but may differ in a detail not shown here. Identical values can stand only once. Like-named read-outs stand apart in the source and are kept apart here. Marks after values point to notes of the source that are not given here.
Tests used:
[1] = test system: P-gp (mdr1a/b) influence on antinociception; set-up: species or system mice; details: mouse, in vivo; for Influence of P-gp ablation on antinociceptive activity: sc
recombinant human P-gp [2] = biological target: T1, recombinant human P-gp (Homo sapiens, UniProt P08183)
T1 sequence (P08183 whole entry): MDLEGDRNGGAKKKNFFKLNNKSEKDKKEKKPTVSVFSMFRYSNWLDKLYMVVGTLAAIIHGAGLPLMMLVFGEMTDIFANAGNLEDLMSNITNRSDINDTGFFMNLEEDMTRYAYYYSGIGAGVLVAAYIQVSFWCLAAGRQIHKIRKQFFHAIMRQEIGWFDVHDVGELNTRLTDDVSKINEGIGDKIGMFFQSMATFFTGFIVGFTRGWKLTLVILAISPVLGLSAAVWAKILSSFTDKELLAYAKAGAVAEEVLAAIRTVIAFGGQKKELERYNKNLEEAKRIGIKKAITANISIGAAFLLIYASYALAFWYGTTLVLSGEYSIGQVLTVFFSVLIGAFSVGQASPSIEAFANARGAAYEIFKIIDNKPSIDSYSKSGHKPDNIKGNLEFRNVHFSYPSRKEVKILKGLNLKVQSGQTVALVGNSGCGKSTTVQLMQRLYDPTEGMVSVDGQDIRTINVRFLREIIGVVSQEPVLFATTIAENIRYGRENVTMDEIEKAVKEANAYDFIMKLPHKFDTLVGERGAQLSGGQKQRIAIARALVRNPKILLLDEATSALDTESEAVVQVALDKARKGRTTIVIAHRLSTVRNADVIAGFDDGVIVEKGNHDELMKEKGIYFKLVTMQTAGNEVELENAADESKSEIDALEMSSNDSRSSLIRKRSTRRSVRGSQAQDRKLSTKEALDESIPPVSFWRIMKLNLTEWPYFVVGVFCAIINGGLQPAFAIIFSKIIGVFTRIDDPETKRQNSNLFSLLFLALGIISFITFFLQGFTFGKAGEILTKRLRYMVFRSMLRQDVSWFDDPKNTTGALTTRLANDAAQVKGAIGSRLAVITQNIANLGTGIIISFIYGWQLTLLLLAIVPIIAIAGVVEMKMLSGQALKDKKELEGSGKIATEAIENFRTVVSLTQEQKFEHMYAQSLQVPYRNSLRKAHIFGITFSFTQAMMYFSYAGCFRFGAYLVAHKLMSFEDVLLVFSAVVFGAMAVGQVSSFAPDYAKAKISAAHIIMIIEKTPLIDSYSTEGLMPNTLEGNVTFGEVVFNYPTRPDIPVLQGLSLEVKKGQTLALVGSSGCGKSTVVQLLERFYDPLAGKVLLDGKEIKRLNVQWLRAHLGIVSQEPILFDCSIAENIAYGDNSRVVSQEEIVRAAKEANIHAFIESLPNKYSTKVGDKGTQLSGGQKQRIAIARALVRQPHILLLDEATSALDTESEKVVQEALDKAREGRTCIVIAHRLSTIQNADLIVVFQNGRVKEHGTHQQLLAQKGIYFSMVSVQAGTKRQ

[3] = mouse, in vivo
μ receptor = details: read-out: Ki at μ receptor, as determined by DEC, NIDA, ref DEC; cited from earlier work
[4] = tail-flick, hotplate and paraphenylquinone assays; ref DEC, NIDA; cited from earlier work
recombinant human P-gp [5] = biological target: T1, recombinant human P-gp; details: cited from earlier work
[6] = ref Casy and Parfitt, 1986; cited from earlier work
[7] = 20 mg/kg, for 45 min in wild type mice; ref Thompson et al., 2000; cited from earlier work
[8] = in vivo; cited from earlier work

For `CN1CC[C@]23c4c5ccc(O)c4O[C@H]2CC=C[C@H]3[C@H]1C5` [6-Desoxymorphine], the “AUEC ratio mdr1a/b (−/−)/mdr1a/b (+/+)” value [1] was 1.14 ± 1.08 and 1.17 ± 0.17, the “Maximum %MPE reached” value [1] was 100% and the “Influence of P-gp ablation on antinociceptive activity” value [1] was “no significant influence”. For the same molecule, the “P-gp affinity status from P-gp ATPase assay” value (“P-gp affinity status” for short) (recombinant human P-gp [2]) was “not to be P-gp substrates”, the “Fold stimulation of basal P-gp-ATPase activity” value (recombinant human P-gp [2]; human) was 1.01 ± 0.11 fold and the Signs of toxicity [3] was “no apparent toxicity”. For the same molecule, the Ki (μ receptor) was 2.9 nM and the “Potency relative to morphine (times as potent)” value [4] was ~ 10 times.

With `CCOC(=O)C1(c2ccccc2)CCN(C)CC1` [Meperidine] the “AUEC ratio mdr1a/b (−/−)/mdr1a/b (+/+)” value [1] was 1.14 ± 0.2, the “mdr1a/b (+/+) (AUEC)” value [1] was 6752.14 ± 917.94 %MPE × min and the “mdr1a/b (−/−) (AUEC)” value [1] was 7678.40 ± 851.59 %MPE × min. For the same molecule, the “Influence of P-gp ablation on antinociceptive activity” value [1] was “no significant influence”, the “Fold stimulation of basal P-gp-ATPase activity” value (recombinant human P-gp [5]) was 1.51 ± 0.29 fold and the “Intravenous to intraventricular ED10 ratio” value [6] was 8.5.

In the case of `CN1CC[C@]23c4c5ccc(O)c4O[C@H]2[C@@H](O)C=C[C@H]3[C@H]1C5` [Morphine], the “%MPE reached” value [7] is given as ~ 95 %MPE.

In the case of `CN1CC[C@]23c4c5ccc(O)c4O[C@H]2C(=O)CC[C@@]3(O)[C@H]1C5` [Oxymorphone], the “P-gp affinity status” value (recombinant human P-gp [2]) is reported as “not to be P-gp substrates”, the “Fold stimulation of basal P-gp-ATPase activity” value (recombinant human P-gp [2]; human) is reported as 1.12 ± 0.12 fold and the “Stimulation of P-gp ATPase activity (significance)” value (recombinant human P-gp [2]; human) is reported as “did not significantly (p > 0.05) stimulate”. The “Potency relative to morphine (times as potent)” value [8] was “approximately 10 times”.

For `COc1ccc2c3c1O[C@H]1[C@@H](O)C=C[C@H]4[C@@H](C2)N(C)CC[C@@]341` [Codeine], the “Fold stimulation of basal P-gp-ATPase activity” value (recombinant human P-gp [2]; human) was 1.36 ± 0.07 ^b fold and the “Rate of ATP consumption versus non-treated control (significance)” value (recombinant human P-gp [2]; human) was “significantly different (p < 0.05)”.

With `C=CCN1CC[C@]23c4c5ccc(O)c4O[C@H]2C(=O)CC[C@@]3(O)[C@H]1C5` [Naloxone] the “Fold stimulation of basal P-gp-ATPase activity” value (recombinant human P-gp [2]; human) was 1.25 ± 0.11 fold and the “Stimulation of P-gp ATPase activity (significance)” value (recombinant human P-gp [2]; human) was “did not significantly (p > 0.05) stimulate”.

With `COc1ccc2c3c1O[C@H]1CC=C[C@H]4[C@@H](C2)N(C)CC[C@]314` [6-Desoxycodeine] the “P-gp affinity status” value (recombinant human P-gp [2]) was “not to be P-gp substrates” and the “Fold stimulation of basal P-gp-ATPase activity” value (recombinant human P-gp [2]; human) was 1.31 ± 0.15 fold.
